Laboratory results reported in patent EP0247482A2, “Hardened reagent coatings, and processes for the preparation thereof” (priority 1986, dated 1987).

Each compound was assayed on casein. Details: pH 7.
Method: A 10 % strength casein solution is prepared in water by adding sodium hydroxide solution. 0.1 g of tartrazine is added to 100 ml of solution as filter dyestuff. Before pouring, various samples of the solution of 3 % by weight of each of the compounds 22, 19, 20, 21, 24, 25, 30, 31, 37, 41, 44, 45, 50, 52, 53, 55 and 56, dissolved in water, are added at a pH of 7.
In the case of `NC(=O)c1ccc[n+](C(=O)N2CCOCC2)c1` [Compound 19], the “hardened filter foils, solubility in alkaline water after drying” value (“hardened filter foils, solubility” below) is reported as “no longer dissolve in alkaline water”.
For `O=C(N1CCOCC1)[n+]1cccc(S(=O)(=O)[O-])c1` [Compound 45], the “hardened filter foils, solubility” value was “no longer dissolve in alkaline water”.
In the case of `CCN(CC)C(=O)[n+]1ccc(CCS(=O)(=O)[O-])cc1` [Compound 50], the “hardened filter foils, solubility” value is reported as “no longer dissolve in alkaline water”.
`Cc1ccc(N(C)C(=O)[n+]2ccc(CCS(=O)(=O)[O-])cc2)cc1` [Compound 52] was tested, and the “hardened filter foils, solubility” value was “no longer dissolve in alkaline water”.
In the case of `O=C(N1CCCCC1)[n+]1ccc(CCS(=O)(=O)[O-])cc1` [Compound 53], the “hardened filter foils, solubility” value is reported as “no longer dissolve in alkaline water”.
`O=C(N1CCOCC1)[n+]1ccc(CCS(=O)(=O)[O-])cc1` [Compound 55] was tested, and the “hardened filter foils, solubility” value was “no longer dissolve in alkaline water”.
With `O=C(N1CCOCC1)[n+]1cccc(CCS(=O)(=O)[O-])c1` [Compound 56] the “hardened filter foils, solubility” value was “no longer dissolve in alkaline water”.
